Some results are limits rather than exact numbers.

19 compounds from US20230310428A1, “EGFR INHIBITOR AND PREPARATION METHOD AND USE THEREOF” (HONGYUN BIOTECH CO., LTD., priority 2020, published 2023) can be followed below.

Common to all, as to assay: Growth inhibitory activity of compounds on BaF3 cell lines stably transfected with kinase (MTS, 48 h)
Holding throughout (type): cell-based

Experiment [1] deals with T1, various mutants of kinase EGFR (BaF3 cell lines stably transfected with kinase) (Homo sapiens, UniProt P00533).
T1 construct: other: BaF3 cells stably transfected with EGFR Δ19Del; MTS, 48 h; other: BaF3 cell line stably transfected with EGFR Δ19Del
T1 sequence (P00533 with tags, fused parts or gaps DEL746-750): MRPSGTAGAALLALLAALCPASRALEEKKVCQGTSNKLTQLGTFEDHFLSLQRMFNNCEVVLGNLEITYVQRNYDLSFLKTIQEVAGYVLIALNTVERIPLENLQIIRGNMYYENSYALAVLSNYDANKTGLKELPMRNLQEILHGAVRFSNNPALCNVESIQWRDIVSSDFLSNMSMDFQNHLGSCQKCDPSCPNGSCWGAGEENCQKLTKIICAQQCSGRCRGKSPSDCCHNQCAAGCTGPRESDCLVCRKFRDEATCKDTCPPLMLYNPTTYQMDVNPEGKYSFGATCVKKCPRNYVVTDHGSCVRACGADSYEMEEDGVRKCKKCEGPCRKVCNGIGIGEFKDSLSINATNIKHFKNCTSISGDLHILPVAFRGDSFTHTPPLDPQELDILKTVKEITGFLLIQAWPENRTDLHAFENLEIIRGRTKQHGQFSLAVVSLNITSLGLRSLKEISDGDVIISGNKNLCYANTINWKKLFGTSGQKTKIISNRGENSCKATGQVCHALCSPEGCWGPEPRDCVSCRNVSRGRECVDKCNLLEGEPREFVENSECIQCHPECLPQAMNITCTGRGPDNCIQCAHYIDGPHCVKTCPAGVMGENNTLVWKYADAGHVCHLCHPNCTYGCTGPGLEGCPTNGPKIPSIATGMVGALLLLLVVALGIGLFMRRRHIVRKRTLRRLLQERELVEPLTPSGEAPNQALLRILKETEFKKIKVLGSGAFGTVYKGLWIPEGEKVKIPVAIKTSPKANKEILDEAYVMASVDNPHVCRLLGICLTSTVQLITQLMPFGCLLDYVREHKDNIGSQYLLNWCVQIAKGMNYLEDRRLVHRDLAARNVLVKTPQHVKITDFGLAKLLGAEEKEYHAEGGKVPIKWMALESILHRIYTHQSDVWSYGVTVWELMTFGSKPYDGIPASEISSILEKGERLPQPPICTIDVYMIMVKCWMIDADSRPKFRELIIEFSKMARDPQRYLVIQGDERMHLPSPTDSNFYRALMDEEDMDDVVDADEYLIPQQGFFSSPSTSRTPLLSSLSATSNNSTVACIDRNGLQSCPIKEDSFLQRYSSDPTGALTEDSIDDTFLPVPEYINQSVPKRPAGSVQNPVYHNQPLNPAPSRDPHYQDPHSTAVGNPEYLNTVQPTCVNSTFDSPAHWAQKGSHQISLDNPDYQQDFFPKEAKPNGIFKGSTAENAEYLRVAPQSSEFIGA
The following applies: BaF3 cells stably transfected with EGFR Δ19Del, read-out: IC50, growth inhibition, Δ19Del. In a few lines: (§1)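 BaF3 cells stably transfected with EGFR mutants were exposed for 48 h at 37°C to 8 compound concentrations (top 10 µM, 1/3 dilutions, 0.1% DMSO). Growth was read by MTS at 490 nm after 1-4 h, in duplicate; IC50 was derived from inhibition rates versus DMSO control.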

For experiment [2], the target named is T2, various mutants of kinase EGFR (BaF3 cell lines stably transfected with kinase) (Homo sapiens, UniProt P00533, C797S/L858R/T790M).
T2 construct: expressed in transfected cells; host or cells: BaF3
T2 sequence (P00533 25-1210 T790M/C797S/L858R): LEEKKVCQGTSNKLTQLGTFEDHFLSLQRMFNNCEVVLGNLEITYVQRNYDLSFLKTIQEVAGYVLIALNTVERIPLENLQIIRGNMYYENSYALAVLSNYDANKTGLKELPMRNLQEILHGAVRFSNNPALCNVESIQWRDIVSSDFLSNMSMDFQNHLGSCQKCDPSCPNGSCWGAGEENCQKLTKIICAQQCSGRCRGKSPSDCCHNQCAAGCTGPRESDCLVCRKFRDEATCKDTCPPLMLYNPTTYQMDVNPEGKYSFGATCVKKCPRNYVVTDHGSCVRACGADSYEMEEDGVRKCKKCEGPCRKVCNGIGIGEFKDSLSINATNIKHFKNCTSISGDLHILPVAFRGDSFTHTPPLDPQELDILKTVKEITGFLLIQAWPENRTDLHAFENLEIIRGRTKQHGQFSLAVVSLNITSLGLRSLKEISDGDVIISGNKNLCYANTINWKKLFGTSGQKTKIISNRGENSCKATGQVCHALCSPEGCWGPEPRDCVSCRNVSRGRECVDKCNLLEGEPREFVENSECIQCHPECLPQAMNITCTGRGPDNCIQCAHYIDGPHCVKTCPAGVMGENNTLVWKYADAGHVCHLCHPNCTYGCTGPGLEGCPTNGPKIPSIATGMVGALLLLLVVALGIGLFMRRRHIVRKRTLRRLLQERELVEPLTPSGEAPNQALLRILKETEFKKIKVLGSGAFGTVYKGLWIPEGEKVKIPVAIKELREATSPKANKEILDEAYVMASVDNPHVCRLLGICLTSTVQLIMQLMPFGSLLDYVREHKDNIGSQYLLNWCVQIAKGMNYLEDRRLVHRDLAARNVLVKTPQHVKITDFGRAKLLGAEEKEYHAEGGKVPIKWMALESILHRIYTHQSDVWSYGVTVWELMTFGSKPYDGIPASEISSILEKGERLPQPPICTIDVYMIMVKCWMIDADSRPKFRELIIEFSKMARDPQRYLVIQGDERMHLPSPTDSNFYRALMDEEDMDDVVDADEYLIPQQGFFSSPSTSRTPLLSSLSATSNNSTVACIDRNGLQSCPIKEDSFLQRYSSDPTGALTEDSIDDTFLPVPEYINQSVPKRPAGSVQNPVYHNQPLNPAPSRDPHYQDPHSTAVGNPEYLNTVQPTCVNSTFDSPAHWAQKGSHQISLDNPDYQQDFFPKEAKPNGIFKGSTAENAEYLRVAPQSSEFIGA
As to conditions: BaF3 cells stably transfected with EGFR L858R/T790M/C797S, read-out: IC50, growth inhibition, L858R/T790M/C797S. In a few lines: as §1

Experiment [3] deals with T3, various mutants of kinase EGFR (BaF3 cell lines stably transfected with kinase) (Homo sapiens, UniProt P00533, L858R).
T3 construct: expressed in transfected cells; host or cells: BaF3
T3 sequence (P00533 25-1210 L858R): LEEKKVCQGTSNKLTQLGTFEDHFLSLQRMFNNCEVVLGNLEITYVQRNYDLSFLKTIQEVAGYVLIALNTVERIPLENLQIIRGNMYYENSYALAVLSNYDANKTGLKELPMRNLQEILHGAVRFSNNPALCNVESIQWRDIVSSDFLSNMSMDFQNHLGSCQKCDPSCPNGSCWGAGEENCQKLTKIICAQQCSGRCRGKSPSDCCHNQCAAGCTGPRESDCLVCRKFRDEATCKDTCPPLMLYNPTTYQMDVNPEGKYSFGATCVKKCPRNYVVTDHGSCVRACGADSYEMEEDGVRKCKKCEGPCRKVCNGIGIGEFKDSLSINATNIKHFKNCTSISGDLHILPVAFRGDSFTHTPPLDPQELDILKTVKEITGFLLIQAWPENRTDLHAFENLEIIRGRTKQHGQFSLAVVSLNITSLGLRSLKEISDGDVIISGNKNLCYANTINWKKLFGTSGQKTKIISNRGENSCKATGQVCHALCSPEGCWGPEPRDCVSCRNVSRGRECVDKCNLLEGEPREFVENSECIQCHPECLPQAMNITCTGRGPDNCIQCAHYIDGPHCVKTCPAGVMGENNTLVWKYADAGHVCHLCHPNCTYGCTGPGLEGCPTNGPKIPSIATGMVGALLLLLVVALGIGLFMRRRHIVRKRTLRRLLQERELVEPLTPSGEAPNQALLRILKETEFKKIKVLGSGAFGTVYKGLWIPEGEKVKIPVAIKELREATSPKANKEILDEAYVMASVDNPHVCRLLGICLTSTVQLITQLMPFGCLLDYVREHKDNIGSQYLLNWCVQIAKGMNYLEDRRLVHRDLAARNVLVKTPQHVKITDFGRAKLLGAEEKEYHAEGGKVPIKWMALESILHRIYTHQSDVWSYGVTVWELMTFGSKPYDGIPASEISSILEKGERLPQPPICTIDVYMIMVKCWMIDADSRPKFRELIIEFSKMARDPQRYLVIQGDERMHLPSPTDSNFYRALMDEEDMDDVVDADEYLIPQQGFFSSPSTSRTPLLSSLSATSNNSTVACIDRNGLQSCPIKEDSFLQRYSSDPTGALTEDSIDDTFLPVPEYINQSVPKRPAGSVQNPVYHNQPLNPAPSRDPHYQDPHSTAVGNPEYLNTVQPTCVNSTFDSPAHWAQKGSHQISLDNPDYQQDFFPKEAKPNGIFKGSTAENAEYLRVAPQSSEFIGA
As to conditions: BaF3 cells stably transfected with EGFR L858R, read-out: IC50, growth inhibition, L858R. In a few lines: as §1

Experiment [4] addresses T4, various mutants of kinase EGFR (BaF3 cell lines stably transfected with kinase) (Homo sapiens, UniProt P00533, L858R/T790M).
T4 construct: expressed in transfected cells; host or cells: BaF3
As to conditions: BaF3 cells stably transfected with EGFR L858R/T790M, read-out: IC50, growth inhibition, L858R/T790M. In a few lines:
as §1

Experiment [5] addresses T5, various mutants of kinase EGFR (BaF3 cell lines stably transfected with kinase) (Homo sapiens, UniProt P00533, T790M/C797S, form not given).
T5 construct: other: BaF3 cells stably transfected with EGFR Δ19Del/T790M/C797S; MTS, 48; other: BaF3 cell line stably transfected with EGFR Δ19Del/T790M/C7
The following applies: BaF3 cells stably transfected with EGFR Δ19Del/T790M/C797S, read-out: IC50, growth inhibition, Δ19Del/T790M/C797S. In a few lines:
as §1

Experiment [6] concerns the target T6, various mutants of kinase EGFR (BaF3 cell lines stably transfected with kinase) (Homo sapiens, UniProt P00533, T790M, form not given).
T6 construct: other: BaF3 cells stably transfected with EGFR Δ19Del/T790M; MTS, 48 h; other: BaF3 cell line stably transfected with EGFR Δ19Del/T790M; MTS, 48
As to conditions: BaF3 cells stably transfected with EGFR Δ19Del/T790M, read-out: IC50, growth inhibition, Δ19Del/T790M. In a few lines: as §1

T5 sequence (P00533 with tags, fused parts or gaps DEL746-750/T790M/C797S, form open): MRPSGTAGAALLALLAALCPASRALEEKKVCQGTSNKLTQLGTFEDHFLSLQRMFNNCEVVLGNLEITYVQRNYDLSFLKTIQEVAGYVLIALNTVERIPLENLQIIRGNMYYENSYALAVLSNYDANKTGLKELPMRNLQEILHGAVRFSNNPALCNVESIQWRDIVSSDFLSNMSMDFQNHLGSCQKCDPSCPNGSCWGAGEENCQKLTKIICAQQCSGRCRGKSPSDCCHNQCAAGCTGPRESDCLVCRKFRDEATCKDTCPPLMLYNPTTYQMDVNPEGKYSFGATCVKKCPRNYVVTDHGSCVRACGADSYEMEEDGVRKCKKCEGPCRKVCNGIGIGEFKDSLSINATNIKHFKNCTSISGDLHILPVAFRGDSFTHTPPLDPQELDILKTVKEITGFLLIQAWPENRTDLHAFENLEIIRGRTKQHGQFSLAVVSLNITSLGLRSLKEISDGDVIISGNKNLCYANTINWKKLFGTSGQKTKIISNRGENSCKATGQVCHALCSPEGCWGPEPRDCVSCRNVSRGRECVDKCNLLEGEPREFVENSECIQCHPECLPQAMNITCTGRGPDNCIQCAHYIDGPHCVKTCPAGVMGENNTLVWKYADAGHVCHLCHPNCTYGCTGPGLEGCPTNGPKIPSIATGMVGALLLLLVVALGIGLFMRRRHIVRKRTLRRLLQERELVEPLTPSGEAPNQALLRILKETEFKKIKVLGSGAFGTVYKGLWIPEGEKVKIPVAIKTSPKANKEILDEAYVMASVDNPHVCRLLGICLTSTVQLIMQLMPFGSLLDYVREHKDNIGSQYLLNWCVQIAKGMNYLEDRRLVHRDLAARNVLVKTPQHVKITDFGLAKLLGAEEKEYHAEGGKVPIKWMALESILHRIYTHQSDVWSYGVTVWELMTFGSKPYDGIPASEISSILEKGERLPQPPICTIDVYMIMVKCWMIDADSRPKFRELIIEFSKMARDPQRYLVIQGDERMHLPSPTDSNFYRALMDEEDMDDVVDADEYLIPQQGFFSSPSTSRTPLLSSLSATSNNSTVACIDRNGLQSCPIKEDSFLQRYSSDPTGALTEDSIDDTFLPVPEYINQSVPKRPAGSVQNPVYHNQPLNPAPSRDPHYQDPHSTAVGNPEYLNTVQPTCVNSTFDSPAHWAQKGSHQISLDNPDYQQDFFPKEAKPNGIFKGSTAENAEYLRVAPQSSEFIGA

Take `COc1cc(N2CCC(N3CCN(C)CC3)CC2)ccc1Nc1ncc(Br)c(Nc2ccc3nccnc3c2N(C)S(=O)(=O)C2CC2)n1` [Compound I-215]: the IC50 in experiment [1] is 50 to 500 nM; in experiment [2] it was at most 50 nM; in experiment [3], 50 to 500 nM; in experiment [4], at most 50 nM; in experiment [5], at most 50 nM; in experiment [6], at most 50 nM.
With `COc1nc(N2CCC(N3CCN(C)CC3)CC2)ccc1Nc1ncc(Br)c(Nc2ccc3nccnc3c2N(C)S(=O)(=O)C2CC2)n1` [Compound I-216], the IC50 lay in the range of 500 to 2500 nM in experiment [1]; 50 to 500 nM in experiment [2]; 500 to 2500 nM in experiment [3]; 500 to 2500 nM in experiment [4]; 50 to 500 nM in experiment [5]; 500 to 2500 nM in experiment [6].
Regarding `CCc1cc(Nc2ncc(Br)c(Nc3ccc4nccnc4c3N(C)S(=O)(=O)C3CC3)n2)c(OC)nc1N1CCC(N2CCN(C)CC2)CC1` [Compound I-218], the IC50 in experiment [1] is 50 to 500 nM; in experiment [2], at most 50 nM; in experiment [3], 50 to 500 nM; in experiment [4], at most 50 nM; in experiment [5], at most 50 nM; in experiment [6] it was at most 50 nM.
As to `C=Cc1cc(Nc2ncc(Br)c(Nc3ccc4nccnc4c3N(C)S(=O)(=O)C3CC3)n2)c(OC(F)(F)F)cc1N1CCC(N2CCN(C)CC2)CC1` [Compound I-219], the IC50 in experiment [1] is 50 to 500 nM; in experiment [2], 50 to 500 nM; in experiment [3] it was 50 to 500 nM; in experiment [4], 50 to 500 nM; in experiment [5] it was at most 50 nM; in experiment [6], at most 50 nM.
With `COc1cc(N2CCC(N3CCN(C)CC3)CC2)c(CC2CC2)cc1Nc1ncc(Br)c(Nc2ccc3nccnc3c2N(C)S(=O)(=O)C2CC2)n1` [Compound I-220], the IC50 in experiment [1] was 50 to 500 nM; in experiment [2], at most 50 nM; in experiment [3], 50 to 500 nM; in experiment [4], 50 to 500 nM; in experiment [5] it was at most 50 nM; in experiment [6] it was 50 to 500 nM.
Regarding `COc1cc(N2CCC(N(C)C)CC2)c(C)cc1Nc1ncc(Br)c(Nc2ccc3nccnc3c2N(C)S(=O)(=O)C2CC2)n1` [Compound I-221], the IC50 was 50 to 500 nM in experiment [1]; at most 50 nM in experiment [2]; 50 to 500 nM in experiment [3]; at most 50 nM in experiment [4]; at most 50 nM in experiment [5]; at most 50 nM in experiment [6].
For the compound `COc1cc(N2CCC(N(C)C)C2)c(C)cc1Nc1ncc(Br)c(Nc2ccc3nccnc3c2N(C)S(=O)(=O)C2CC2)n1` (stereo not drawn) [Compound I-222], the IC50 is 50 to 500 nM in experiment [1]; at most 50 nM in experiment [2]; 50 to 500 nM in experiment [3]; at most 50 nM in experiment [4]; at most 50 nM in experiment [5]; at most 50 nM in experiment [6].
In the case of `COc1cc(N2CCC(N3CCN(C)CC3)CC2)ccc1Nc1ncc(Br)c(Nc2ccc3nccnc3c2N(C2CC2)S(C)(=O)=O)n1` [Compound I-223], the IC50 was 50 to 500 nM in experiment [1]; at most 50 nM in experiment [2]; 50 to 500 nM in experiment [3]; at most 50 nM in experiment [4]; at most 50 nM in experiment [5]; at most 50 nM in experiment [6].
Take `CCN(c1c(Nc2nc(Nc3ccc(N4CCC(N5CCN(C)CC5)CC4)cc3OC)ncc2Cl)ccc2nccnc12)S(C)(=O)=O` [Compound I-224]: the IC50 is 50 to 500 nM in experiment [1]; at most 50 nM in experiment [2]; 50 to 500 nM in experiment [3]; at most 50 nM in experiment [4]; at most 50 nM in experiment [5]; 50 to 500 nM in experiment [6].
`CCN(c1c(Nc2nc(Nc3ccc(N4CCC(N5CCN(C)CC5)CC4)nc3OC)ncc2Cl)ccc2nccnc12)S(C)(=O)=O` [Compound I-225]: the IC50 is 50 to 500 nM in experiment [1]; 50 to 500 nM in experiment [2]; 50 to 500 nM in experiment [3]; 50 to 500 nM in experiment [4]; at most 50 nM in experiment [5]; 50 to 500 nM in experiment [6].
On to `CCN(c1c(Nc2nc(Nc3cc(C)c(N4CCC(N5CCN(C)CC5)CC4)nc3OC)ncc2Cl)ccc2nccnc12)S(C)(=O)=O` [Compound I-226], for which the IC50 in experiment [1] was 500 to 2500 nM; in experiment [2], 500 to 2500 nM; in experiment [3] it was 500 to 2500 nM; in experiment [4], 50 to 500 nM; in experiment [5] it was 500 to 2500 nM; in experiment [6], 50 to 500 nM.
Regarding `CCc1cc(Nc2ncc(Cl)c(Nc3ccc4nccnc4c3N(CC)S(C)(=O)=O)n2)c(OC)nc1N1CCC(N2CCN(C)CC2)CC1` [Compound I-227], the IC50 in experiment [1] is 50 to 500 nM; in experiment [2], at most 50 nM; in experiment [3], at most 50 nM; in experiment [4], at most 50 nM; in experiment [5], at most 50 nM; in experiment [6], at most 50 nM.
Consider `C=Cc1cc(Nc2ncc(Cl)c(Nc3ccc4nccnc4c3N(CC)S(C)(=O)=O)n2)c(OC(F)(F)F)cc1N1CCC(N2CCN(C)CC2)CC1` [Compound I-228], for which the IC50 is 50 to 500 nM in experiment [1]; at most 50 nM in experiment [2]; 50 to 500 nM in experiment [3]; at most 50 nM in experiment [4]; at most 50 nM in experiment [5]; at most 50 nM in experiment [6].
Take `CCN(c1c(Nc2nc(Nc3cc(CC4CC4)c(N4CCC(N5CCN(C)CC5)CC4)cc3OC)ncc2Cl)ccc2nccnc12)S(C)(=O)=O` [Compound I-229]: the IC50 is 50 to 500 nM in experiment [1]; at most 50 nM in experiment [2]; 50 to 500 nM in experiment [3]; at most 50 nM in experiment [4]; at most 50 nM in experiment [5]; 50 to 500 nM in experiment [6].
Turning to `CCN(c1c(Nc2nc(Nc3cc(C)c(N4CCC(N(C)C)CC4)cc3OC)ncc2Cl)ccc2nccnc12)S(C)(=O)=O` [Compound I-230], the IC50 in experiment [1], in experiment [2], in experiment [3], in experiment [4], in experiment [5] and in experiment [6] was at most 50 nM in each case.
Consider `CCN(c1c(Nc2nc(Nc3cc(C)c(N4CCN(C)CC4)cc3OC)ncc2Cl)ccc2nccnc12)S(C)(=O)=O` [Compound I-231], for which the IC50 in experiment [1] is at most 50 nM; in experiment [2], at most 50 nM; in experiment [3], at most 50 nM; in experiment [4] it was at most 50 nM; in experiment [5], at most 50 nM; in experiment [6] it was 50 to 500 nM.
In the case of `CCc1cc(Nc2ncc(Cl)c(Nc3ccc4nccnc4c3N(CC)S(C)(=O)=O)n2)c(OC)cc1N1CCN(C)CC1` [Compound I-232], the IC50 in experiment [1], in experiment [2], in experiment [3], in experiment [4], in experiment [5] and in experiment [6] was at most 50 nM in each case.
On to `CCN(c1c(Nc2nc(Nc3cc(C)c(N4CCC(N(C)C)C4)cc3OC)ncc2Cl)ccc2nccnc12)S(C)(=O)=O` (stereo not drawn) [Compound I-233], for which the IC50 in experiment [1], in experiment [2], in experiment [3], in experiment [4], in experiment [5] and in experiment [6] was at most 50 nM in each case.
Take `CCc1cc(Nc2ncc(Cl)c(Nc3ccc4nccnc4c3N(C)S(=O)(=O)CC)n2)c(OC)nc1N1CCC(N2CCN(C)CC2)CC1` [Compound I-234]: the IC50 in experiment [1] is 50 to 500 nM; in experiment [2] it was at most 50 nM; in experiment [3] it was 50 to 500 nM; in experiment [4], at most 50 nM; in experiment [5], at most 50 nM; in experiment [6] it was at most 50 nM.
